For 32 compounds, IC50 results are on record in patent US10166216B2 (Rigel Pharmaceuticals, Inc., priority 2006, dated 2019).

The target of this experiment is Axl (Homo sapiens (Human), UniProt P30530). Description: Phospho-Akt in-cell Western assay (Axl-antibody cross-linking stimulation). The format is cell-based. The conditions noted are these: inhibition of Axl activity. A digest of the protocol: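 HeLa cells on poly-L-lysine, starved 24 hrs with Axl/Fc, pre-treated with compound 1 hr at 37° C., then stimulated 5 min with Axl primary/secondary antibody cluster. Fixed cells probed for phospho-Akt by chemiluminescent in-cell Western; signal normalized to crystal violet cell number.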

The mark [1] stands for this setting: Hela cells, phospho-Akt readout, Table 1, formula (Ia1).
The mark [2] stands for this setting: phospho-Akt in-cell Western assay.
Setting [3] is: Hela cells, phospho-Akt readout, Table 5, formula (Ia3).

Sequence of Axl (P30530 26-894): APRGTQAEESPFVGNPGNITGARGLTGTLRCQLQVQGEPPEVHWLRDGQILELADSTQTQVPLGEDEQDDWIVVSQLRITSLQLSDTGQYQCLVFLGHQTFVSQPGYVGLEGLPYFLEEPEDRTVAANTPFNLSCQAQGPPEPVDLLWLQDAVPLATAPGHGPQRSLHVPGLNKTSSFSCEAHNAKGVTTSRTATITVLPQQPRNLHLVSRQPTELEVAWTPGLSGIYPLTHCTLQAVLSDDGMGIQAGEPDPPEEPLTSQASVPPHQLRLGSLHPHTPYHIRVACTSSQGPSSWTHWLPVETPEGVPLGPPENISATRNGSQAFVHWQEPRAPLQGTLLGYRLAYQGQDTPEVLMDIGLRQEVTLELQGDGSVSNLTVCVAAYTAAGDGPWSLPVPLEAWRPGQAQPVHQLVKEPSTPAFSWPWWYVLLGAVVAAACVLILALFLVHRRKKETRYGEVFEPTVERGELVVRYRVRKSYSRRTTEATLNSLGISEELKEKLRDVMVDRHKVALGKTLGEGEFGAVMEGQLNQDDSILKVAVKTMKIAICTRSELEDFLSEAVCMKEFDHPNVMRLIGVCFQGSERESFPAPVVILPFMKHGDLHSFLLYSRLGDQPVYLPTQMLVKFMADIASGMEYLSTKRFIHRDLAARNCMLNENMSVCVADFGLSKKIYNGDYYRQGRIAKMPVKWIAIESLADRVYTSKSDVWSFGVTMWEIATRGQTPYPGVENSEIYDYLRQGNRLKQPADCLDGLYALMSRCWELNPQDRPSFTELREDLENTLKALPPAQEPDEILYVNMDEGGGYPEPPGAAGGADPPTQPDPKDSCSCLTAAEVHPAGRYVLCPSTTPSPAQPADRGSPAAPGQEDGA

As usually defined, the IC50 is the concentration needed to halve the response being measured. Read a high IC50 as lower potency. On to `Nc1nc(Nc2ccc(OCCN3CCCC3)cc2)nn1-c1nc(Cl)nc2ccccc12` [Compound 37, 1-(2-chloroquinazolin-4-yl)-N^3-(4-(2-(pyrrolidin-1-yl)ethoxy)phenyl)-1H-1,2,4-triazole-3,5-diamine], for which, under setting [1], the IC50 was below 1000 nM. For `Nc1nc(Nc2ccc(N3CCN(C4CC5CCC4C5)CC3)cc2)nn1-c1ncnc2cc(-c3ccc(Cl)cc3)sc12` (centres unmarked) [Compound 186, 1-(6-(4-chlorophenyl)thieno[3,2-d]pyrimidin-4-yl)-N^3-(4-(4-(bicyclo[2.2.1]heptan-2-yl)-piperazin-1-yl)phenyl)-1H-1,2,4-triazole-3,5-diamine], the IC50 under setting [2] was above 20000 nM.

Turning to `CN1CCN(c2ccc(Nc3nc(N)n(-c4cc5c(nn4)-c4ccccc4CC5)n3)cc2)CC1` [Compound 108, 1-(5,6-dihydrobenzo[h]cinnolin-3-yl)-N^3-(4-(4-methylpiperazin-1-yl)phenyl)-1H-1,2,4-triazole-3,5-diamine], under setting [2], the IC50 is below 1000 nM. The compound `Cc1csc2c(-n3nc(Nc4ccc(N5CCN([C@H]6C[C@@H]7CC[C@H]6C7)CC5)c(F)c4)nc3N)ncnc12` [Compound 245, 1-(7-methylthieno[3,2-d]pyrimidin-4-yl)-N^3-(3-fluoro-4-(4-((1S,2S,4R)-bicyclo[2.2.1]heptan-2-yl)piperazin-1-yl)phenyl)-1H-1,2,4-triazole-3,5-diamine] showed an IC50 under setting [2] below 1000 nM. Regarding `Nc1nc(Nc2ccc(OCCN3CCCC3)cc2)nn1-c1ncnc2sc3c(c12)CCC3` [Compound 66, 1-(6,7-dihydro-5H-cyclopenta[4,5]thieno[2,3-d]pyrimidin-4-yl)-N^3-(4-(2-(pyrrolidin-1-yl)ethoxy)phenyl)-1H-1,2,4-triazole-3,5-diamine], the IC50 under setting [1] was below 1000 nM.

In the case of `Nc1nc(Nc2ccc(N3CCN(C4CC5CCC4C5)CC3)cc2)nn1-c1ncnc2ccsc12` (centres unmarked) [Compound 128, N^3-(4-(4-(bicyclo[2.2.1]heptan-2-yl)piperazin-1-yl)phenyl)-1-(thieno[3,2-d]pyrimidin-4-yl)-1H-1,2,4-triazole-3,5-diamine], the IC50 under setting [2] is below 1000 nM.

Under setting [2], `COc1cc2ncnc(-n3nc(Nc4ccc(N5CCN(C6CC7CCCC76)CC5)cc4)nc3N)c2cc1OC` (centres unmarked) [Compound 124, N^3-(4-(4-(bicyclo[3.2.0]heptan-6-yl)piperazin-1-yl)phenyl)-1-(6,7-dimethoxyquinazolin-4-yl)-1H-1,2,4-triazole-3,5-diamine] had an IC50 above 20000 nM. Compound `CC(=O)c1ccc(Nc2nc(N)n(-c3cnc4ccccc4n3)n2)cc1` [Compound 144, 1-(4-(5-amino-1-(quinoxalin-2-yl)-1H-1,2,4-triazol-3-ylamino)phenyl)ethanone] yielded an IC50 under setting [3] above 20000 nM. Consider `COc1ccc2nc(Cl)c(-n3nc(Nc4ccc(N5CCN([C@H]6C[C@@H]7CC[C@H]6C7)CC5)c(F)c4)nc3N)nc2c1` [Compound 227, 1-(2-chloro-6-methoxy-quinoxalin-3-yl)-N^3-(3-fluoro-4-(4-((1S,2S,4R)-bicyclo[2.2.1]heptan-2-yl)piperazin-1-yl)phenyl)-1H-1,2,4-triazole-3,5-diamine], for which the IC50 under setting [2] is 1000 to 10000 nM. In turn, `Nc1nc(Nc2ccc(OCCN3CCCCC3)cc2)nn1-c1ccccc1F` [Compound 28, 1-(2-fluorophenyl)-N^3-(4-(2-(piperidin-1-yl)ethoxy)phenyl)-1H-1,2,4-triazole-3,5-diamine] came in with an IC50 under setting [1] above 20000 nM. Turning to `COc1ccc(Nc2nc(N)n(-c3ccccn3)n2)cc1` [Compound 142, N^3-(4-methoxyphenyl)-1-(pyridin-2-yl)-1H-1,2,4-triazole-3,5-diamine], the half-maximal inhibitory concentration (IC50) under setting [3] is above 20000 nM. The compound `CCN1CCN(c2cc(Nc3nc(N)n(-c4ncnc5cc(OC)c(OC)cc45)n3)ccc2Cl)CC1` [Compound 119, N-(4-chloro-3-(4-ethylpiperazin-1-yl)phenyl)-1-(6,7-dimethoxyquinazolin-4-yl)-1H-1,2,4-triazole-3,5-diamine] came in with an IC50 under setting [2] of 1000 to 10000 nM. Turning to `COc1cc2c(-n3nc(Nc4ccc(N5CCN(C6CCCCCC6)CC5)cc4)nc3N)ncnc2cc1O` [Compound 109, 4-(5-amino-3-(4-(4-cycloheptylpiperazin-1-yl)phenylamino)-1H-1,2,4-triazol-1-yl)-6-methoxyquinazolin-7-ol], under setting [2], the IC50 is below 1000 nM. Under setting [3], `CN1CCCC(Oc2ccc(Nc3nc(N)n(-c4nccc5ccccc45)n3)cc2)C1` (centres unmarked) [Compound 155, 1-(isoquinolin-1-yl)-N^3-(4-(1-methylpiperidin-3-yloxy)phenyl)-1H-1,2,4-triazole-3,5-diamine] displayed an IC50 below 1000 nM. As to `CC1CCC(C)N1CCOc1ccc(Nc2nc(N)n(-c3cnc4ccccc4n3)n2)cc1` (centres unmarked) [Compound 46, N^3-(4-(2-(2,5-dimethylpyrrolidin-1-yl)ethoxy)phenyl)-1-(quinoxalin-2-yl)-1H-1,2,4-triazole-3,5-diamine], the IC50 under setting [1] is below 1000 nM. Turning to `Cc1csc2c(-n3nc(Nc4ccc(C5CCN(C6CC7CCC6C7)CC5)cc4)nc3N)nc(Cl)nc12` (centres unmarked) [Compound 134, N^3-(4-(1-(bicyclo[2.2.1]heptan-2-yl)piperidin-4-yl)phenyl)-1-(2-chloro-7-methylthieno[3,2-d]pyrimidin-4-yl)-1H-1,2,4-triazole-3,5-diamine], the IC50 under setting [2] is below 1000 nM. As for `Nc1nc(Nc2ccc(OCCN3CCCC3)cc2)nn1-c1nccc2[nH]c(=O)ccc12` [Compound 78, 5-(5-amino-3-(4-(2-(pyrrolidin-1-yl)ethoxy)phenylamino)-1H-1,2,4-triazol-1-yl)-1,6-naphthyridin-2(1H)-one], the IC50 under setting [1] was below 1000 nM. Turning to `COc1cc2c(-n3nc(Nc4ccc(N5CCN(C6CC7CCC6C7)CC5)c(F)c4)nc3N)ncnc2cc1O` (centres unmarked) [Compound 106, 4-(5-amino-3-(4-(4-(bicyclo[2.2.1]heptan-2-yl)piperazin-1-yl)-3-fluorophenylamino)-1H-1,2,4-triazol-1-yl)-6-methoxyquinazolin-7-ol], under setting [2], the IC50 was below 1000 nM.

With `CN1CCN(c2ccc(Nc3nc(N)n(-c4nccc5ccccc45)n3)cc2F)CC1` [Compound 90, N^3-(3-fluoro-4-(4-methylpiperazin-1-yl)phenyl)-1-(isoquinolin-1-yl)-1H-1,2,4-triazole-3,5-diamine], under setting [2], the half-maximal inhibitory concentration (IC50) is below 1000 nM.

`COc1cc2ncnc(-n3nc(Nc4ccc(N5CCN(C6CC7CCC6C7)CC5)c(F)c4)nc3N)c2cc1OC` (centres unmarked) [Compound 123, N^3-(4-(4-(bicyclo[2.2.1]heptan-2-yl)piperazin-1-yl)-3-fluorophenyl)-1-(6,7-dimethoxyquinazolin-4-yl)-1H-1,2,4-triazole-3,5-diamine] returned an IC50 under setting [2] above 20000 nM. Under setting [3], `CC(C)c1ccc(-n2nc(Nc3ccc(N4CCOCC4)cc3)nc2N)cc1` [Compound 218, 1-(4-isopropylphenyl)-N^3-(4-morpholinophenyl)-1H-1,2,4-triazole-3,5-diamine] gave an IC50 above 20000 nM. The compound `COc1cc2ccnc(-n3nc(Nc4ccc(OCCN5CCCC5)cc4)nc3N)c2cc1OC` [Compound 77, 1-(6,7-dimethoxyisoquinolin-1-yl)-N^3-(4-(2-(pyrrolidin-1-yl)ethoxy)phenyl)-1H-1,2,4-triazole-3,5-diamine] had an IC50 under setting [1] below 1000 nM.

Compound `COc1cc2ncnc(-n3nc(Nc4ccc(Cl)c(N5CCN(C(C)=O)CC5)c4)nc3N)c2cc1OC` [Compound 120, 1-(4-(5-(5-amino-1-(6,7-dimethoxyquinazolin-4-yl)-1H-1,2,4-triazol-3-ylamino)-2-chlorophenyl)piperazin-1-yl)ethanone] displayed an IC50 under setting [2] above 20000 nM. `COC(=O)C1CCCN1CCOc1ccc(Nc2nc(N)n(-c3cnc4ccccc4n3)n2)cc1` (centres unmarked) [Compound 33, methyl 1-(2-(4-(5-amino-1-(quinoxalin-2-yl)-1H-1,2,4-triazol-3-ylamino)phenoxy)ethyl)-pyrrolidine-2-carboxylate] returned a half-maximal inhibitory concentration (IC50) under setting [1] of 1000 to 10000 nM. Under setting [2], `Cc1nnc(-n2nc(Nc3ccc(N4CCN(C5CC6CCC5C6)CC4)c(F)c3)nc2N)c2sccc12` (centres unmarked) [Compound 203, 1-(4-methylthieno[3,2-d]pyridazin-7-yl)-N^3-(3-fluoro-4-(4-(bicyclo[2.2.1]heptan-2-yl)-piperazin-1-yl)phenyl)-1H-1,2,4-triazole-3,5-diamine] displayed an IC50 below 1000 nM. As to `COc1cc2c(-n3nc(Nc4ccc(N5CCN(C)CC5)c(F)c4)nc3N)ncnc2cc1O` [Compound 117, 4-(5-amino-3-(3-fluoro-4-(4-methylpiperazin-1-yl)phenylamino)-1H-1,2,4-triazol-1-yl)-6-methoxyquinazolin-7-ol], under setting [2], the IC50 is below 1000 nM. On to `Nc1nc(Nc2ccc(OCCN3CCCC3)c(F)c2)nn1-c1nc2ccccc2s1` [Compound 56, 1-(benzo[d]thiazol-2-yl)-N^3-(3-fluoro-4-(2-(pyrrolidin-1-yl)ethoxy)phenyl)-1H-1,2,4-triazole-3,5-diamine], for which the IC50 under setting [1] is below 1000 nM. As to `Nc1nc(Nc2ccc(OCCN3CCCCC3)cc2)nn1-c1ccccc1` [Compound 1, 1-phneyl-N^3-(4-(2-(piperidin-1-yl)ethoxy)phenyl)-1H-1,2,4-triazole-3,5-diamine], the IC50 under setting [1] was above 20000 nM. For the compound `CC1CCCN1CCOc1ccc(Nc2nc(N)n(-c3cnc4ccccc4n3)n2)cc1` (centres unmarked) [Compound 21, N^3-(4-(2-(2-methylpyrrolidin-1-yl)ethoxy)phenyl)-1-(quinoxalin-2-yl)-1H-1,2,4-triazole-3,5-diamine], the IC50 under setting [1] was below 1000 nM.

For `Nc1nc(Nc2ccc(OCCN3CCCC3)cc2)nn1-c1nc(C(F)(F)F)nc2ccccc12` [Compound 53, N^3-(4-(2-(pyrrolidin-1-yl)ethoxy)phenyl)-1-(2-(trifluoromethyl)quinazolin-4-yl)-1H-1,2,4-triazole-3,5-diamine], the IC50 under setting [1] was below 1000 nM. Under setting [2], `Cc1csc2c(-n3nc(Nc4ccc(N5CCN(C6CC7CCC6C7)CC5)c(F)c4)nc3N)ncnc12` (centres unmarked) [Compound 194] came in with an IC50 below 1000 nM.

In the case of `COc1cc2ncnc(-n3nc(Nc4ccc(N5Cc6ccccc6C5)c(F)c4)nc3N)c2cc1OC` [Compound 216, 1-(6,7-dimethoxyquinazolin-4-yl)-N^3-(3-fluoro-4-(isoindolin-2-yl)phenyl)-1H-1,2,4-triazole-3,5-diamine], the IC50 under setting [3] is above 20000 nM.
